Article PMC3684613 (PLoS ONE, 2013)
Read-outs that look alike come from different tables or passages of the source.

Key:
[1] = system: P. falciparum 3D7; parameters: method as in ChEMBL-NTD; settings: ref ChEMBL-NTD, cited from earlier work
[2] = system: P. falciparum 3D7; assay: DAPI stain fluorescent high content imaging assay, P. falciparum 3D7 (confirmatory screen, Avery); settings: Plasmodium falciparum; for EC50: 3D7, read-out: EC50_nM; for inhibition of growth at 5 µM: 3D7, read-out: percent_inh @ 5 uM; for inhibition of growth at 2 µM: 3D7, read-out: percent_inh @ 2 uM
[3] = values follow the order of the source (GNF; GSK; StJude)
[4] = original screening data, source (GSK, GNF, StJude), several values separated by ';' in order of sources

Compound	EC50 [2]	inhibition of growth at 5 µM [2]	further results
OC1=C2C(=Nc3ccccc3SC2c2ccc(Br)cc2)c2ccccc21 (stereo not drawn) [MMV007127]	567 nM	97%	EC50 ([1]; source GNF (GNF-Pf ids)): 337 nM
Cc1ccc(N2C3c4ccccc4N(S(=O)(=O)c4ccc(C)cc4)C2c2ccccc2N3S(=O)(=O)c2ccc(C)cc2)cc1 [MMV007160]	24.8 nM	97%	EC50 ([1]; source GNF (GNF-Pf id)): 720 nM
Cc1cc(Nc2ccc(OCc3ccccc3)cc2)nc2cc(O)ccc12 [MMV007181]	684 nM	96%	EC50 [1, 3]: 73.6 nM
COc1ccc(OC)c(C2C3=C(CC(C)(C)CC3=O)N(c3ccc(Cl)c(Cl)c3)C3=C2C(=O)CC(C)(C)C3)c1 [MMV007208]	912 nM	90%	EC50 ([1]; source GNF (GNF-Pf ids)): 430 nM
Cc1cccc(N2C(=O)C3C(C2=O)C2(c4ccccc4)C(=O)C3(c3ccccc3)C(c3ccc4c(c3)OCO4)=C2c2ccc3c(c2)OCO3)c1 (stereo not drawn) [MMV007228]	304 nM	94%	EC50 [1, 3]: 1070 nM
COc1cc(-c2nc(-c3ccc(Sc4ccccc4)cc3)c(-c3ccccc3)[nH]2)cc(OC)c1O [MMV007273]	350 nM	97%	EC50 ([1]; source GNF (GNF-Pf ids)): 1280 nM
Cc1ccc(F)cc1NC(=O)c1cc(Cl)ccc1Nc1ccccc1 [MMV007275]	539 nM	99%	EC50 ([1]; source GNF (GNF-Pf ids)): 191 nM
CCOc1ccc(Nc2ccnc3cc(Cl)ccc23)cc1 [MMV007285]	4000 nM		EC50 [1, 3]: 956 nM; inhibition of growth at 2 µM [2]: 94%
Clc1ccc2c(N3CCCC3)ccnc2c1 [MMV007363]	944 nM	97%	EC50 [1, 4]: 283 nM
CCc1ccc(Nc2cc(C)nc3nc(C)nn23)cc1 [MMV007374]	4000 nM		EC50 [1, 4]: 574 nM; inhibition of growth at 2 µM [2]: 81%
COc1ccc(-c2nc3cc(Cc4ccc5[nH]c(-c6ccc(OC)cc6)nc5c4)ccc3[nH]2)cc1 [MMV007384]	176 nM	98%	EC50 ([1]; source GNF (GNF-Pf id)): 234 nM
Cc1ccccc1OCCSc1nc2ccc(NC(=O)c3cccs3)cc2s1 [MMV007396]	697 nM	96%	EC50 ([1]; source GNF (GNF-Pf ids)): 497 nM
O=C(NCc1ccco1)C1CCN(S(=O)(=O)c2ccc(Br)cc2)CC1 [MMV007430]	939 nM	93%	EC50 [1, 4]: 362 nM
COc1cc2c3cc1Oc1c(OC)c(OC)cc4c1C(Cc1ccc(O)c(c1)Oc1ccc(cc1)CC3N(C)CC2)N(C)CC4 (stereo not drawn) [MMV007474]	1270 nM	96%	EC50 [1, 3]: 997 nM
COc1ccc(CCNC(=O)c2cc(S(=O)(=O)N3CC(C)CC(C)C3)ccc2Sc2ccc(F)cc2)cc1OC (stereo not drawn) [MMV007557]	632 nM	97%	EC50 ([1]; source GNF (GNF-Pf ids)): 1050 nM
Cc1ccc(Cn2c(N3CCC(C(=O)NCc4cccs4)CC3)nc3ccccc32)cc1 [MMV007564]	947 nM	73%	EC50 ([1]; source GNF): 529 nM; EC50 ([1]; source GSK): 748 nM
Cc1ccc(CSCc2ccc(C(=O)NC3CC3)o2)cc1 [MMV007571]	635 nM	97%	EC50 ([1]; source GNF): 418 nM
O=C(Nc1ccc(C23CC4CC(CC(c5ccccc5)(C4)C2)C3)cc1)c1cccs1 [MMV007574]	826 nM	96%	EC50 ([1]; source GNF (GNF-Pf ids)): 645 nM
Cc1ccccc1OCCSc1nc2ccc(NC(=O)c3ccccc3)cc2s1 [MMV007577]	1120 nM	93%	EC50 ([1]; source GNF (GNF-Pf ids)): 9760 nM
COc1ccc(C(=O)C(CCC(CNC(C)(C)C)C(=O)c2ccc(OC)cc2)CNC(C)(C)C)cc1 (stereo not drawn) [MMV007591]		85%	EC50 [1, 3]: 1120 nM
CC(=O)NCCc1nc2ccccc2n1Cc1ccc(C(C)C)cc1 [MMV007617]	1790 nM	97%	EC50 ([1]; source GNF): 764 nM
Cc1ccc(C)c(-c2csc(Nc3ccc(C)c(C)c3)n2)c1 [MMV007654]		94%	EC50 [1, 3]: 493 nM
CCCCCCOC(=O)C1=C(C)NC(=O)NC1c1ccccc1F (stereo not drawn) [MMV007686]	106 nM	95%	EC50 ([1]; source GNF (GNF-Pf id)): 6760 nM
COc1ccc(C(C)=O)cc1N1C(=O)C2C(C1=O)C1(c3ccccc3)C(=O)C2(c2ccccc2)C(c2ccc(C)cc2)=C1c1ccc(C)cc1 (stereo not drawn) [MMV007695]	179 nM	96%	EC50 ([1]; source GNF (GNF-Pf id)): 2460 nM

Compound	EC50 [2]	inhibition of growth at 5 µM [2]	further results
CCCCc1c(CCC)c(=N)c2ccccc2n1C [MMV007764]	716 nM	77%	EC50 [1, 3]: 311 nM
CCOc1ccccc1NC(=O)CN1CCN(C(=O)c2ccco2)CC1 [MMV007791]		83%	EC50 [1, 4]: 5460 nM
COc1nc(Nc2ccc(C(C)C)cc2)nc(OC)n1 [MMV007808]	1140 nM	88%	EC50 [1, 4]: 677 nM
COc1ccc2c(c1)OC(O)(C(F)(F)C(F)(F)F)CC2=O (stereo not drawn) [MMV007839]	283 nM		EC50 ([1]; source GNF (GNF-Pf id)): 442 nM
CCCCN(CCCC)S(=O)(=O)c1ccc(NC(=O)c2ccco2)cc1 [MMV007881]		78%	EC50 [1, 4]: 1420 nM
CCCCOc1ccc(C(=O)Nc2cc(C)on2)cc1 [MMV007906]		73%	EC50 [1, 4]: 3160 nM
Cc1ccc(Nc2nc(-c3ccccn3)cs2)cc1 [MMV007907]	350 nM	79%	EC50 ([1]; source GNF): 407 nM
CCOc1ccc(CCNC(=O)c2cccs2)cc1OCC [MMV007978]		95%	EC50 [1, 4]: 890 nM
CN1CCN(c2c3c(c(C#N)c4nc5ccccc5n24)CCC3)CC1 [MMV008127]	4000 nM		EC50 [1, 4]: 1180 nM; inhibition of growth at 2 µM [2]: 42%
O=C(O)C1Cc2c([nH]c3ccccc23)C(c2ccc(Cl)cc2Cl)N1 (stereo not drawn) [MMV008138]	350 nM		EC50 ([1]; source GNF (GNF-Pf id)): 1020 nM; EC50 ([1]; source GSK (TCMDC id)): 954 nM
Cc1c(C)n(Cc2ccc(F)cc2)c2ccc(C(=O)NCc3ccco3)cc12 [MMV008149]		52%	EC50 ([1]; source GNF): 78.2 nM
CN1C=C(c2ccc3ccccc3n2)C(c2c[nH]c3ccccc23)c2ccccc21 (stereo not drawn) [MMV008160]	552 nM	95%	EC50 [1, 3]: 1140 nM
COc1cc(OC)cc(N2C(=O)N(Cc3ccc(C(C)(C)C)cc3)c3ccccc3S2(=O)=O)c1 [MMV008173]	1430 nM	97%	EC50 ([1]; source GNF (GNF-Pf ids)): 3750 nM
COc1ccc2nc(C)cc(Nc3cccc(O)c3)c2c1 [MMV008212]	969 nM	98%	EC50 [1, 4]: 228 nM
Oc1c2c(nc3cc(-c4ccccc4)nn13)CCCC2 [MMV008270]		77%	EC50 [1, 4]: 1930 nM
CCOC(=O)c1cnc2c(C)cc(C)cc2c1Nc1ccc(OC)c(OC)c1 [MMV008294]	232 nM	96%	EC50 ([1]; source GNF (GNF-Pf id)): 1780 nM
CCCc1c(CC)c(=N)c2ccccc2n1C [MMV008416]	242 nM	69%	EC50 ([1]; source GNF (GNF-Pf id)): 762 nM
COc1ccc(C2C(C(=O)Nc3cccc(OC)c3)c3ccccc3C(=O)N2C2CCCCC2)cc1 (stereo not drawn) [MMV008455]	1180 nM	97%	EC50 ([1]; source GNF (GNF-Pf ids)): 1110 nM
CCN1CCN(c2c(C(=O)c3ccccc3)cnc3cc(OC)c(OC)cc23)CC1 [MMV008474]		59%	EC50 ([1]; source GNF (GNF-Pf ids)): 3020 nM
CCCn1c(=N)c(C(=O)NC2CCCCC2)cc2c(=O)n3cccc(C)c3nc21 [MMV008829]	1110 nM	96%	EC50 ([1]; source GNF): 460 nM
CCOc1cc2c(cc1OCC)C(c1cc(OC)c(O)cc1Cl)NCC2 (stereo not drawn) [MMV008956]	370 nM	98%	EC50 ([1]; source GNF (GNF-Pf id)): 362 nM; EC50 ([1]; source GSK (TCMDC id)): 748 nM
O=C(CCc1ccccc1)c1ccccc1OCC(O)CN1CCCCC1 (stereo not drawn) [MMV009015]	676 nM	97%	EC50 ([1]; source GNF): 881 nM
CCN(CC)c1ccc(NC(=O)c2cccs2)cc1 [MMV009060]		88%	EC50 ([1]; source GNF): 414 nM
